Patent US12162858B2, “Quinoline derivatives as inhibitors of AXL/MER RTK and CSF1R” (QURIENT CO., LTD., priority 2018, dated 2024)
pIC50, pKd: −log10 of the molar value. Read-outs that look alike come from different tables or passages of the source.

Assays:
CSF1R = CSF1R (Homo sapiens, UniProt P07333); assay: KINOMEscan competition binding assay for CSF1R; parameters: DNA tag for qPCR (not a peptide); host or cells: E. coli/T7 phage or HEK-293; settings: for pKd: read-out: CSF1R kinase binding activity (Kd)
Experimental: KINOMEscan™ is based on a competition binding assay that quantitatively measures the ability of a compound to compete with an immobilized, active-site directed ligand. The assay is performed by combining three components: DNA-tagged kinase; immobilized ligand; and a test compound. The ability of the test compound to compete with the immobilized ligand is measured via quantitative PCR of the DNA tag.
E. coli were grown to log-phase and infected with T7 phage and incubated with shaking at 32° C. until lysis. The lysates were centrifuged and filtered to remove cell debris. The remaining kinases were produced in HEK-293 cells and subsequently tagged with DNA for qPCR detection. Streptavidin-coated magnetic beads were treated with biotinylated small molecule ligands for 30 minutes at room temperature to generate affinity resins for kinase assays. The liganded beads were blocked with excess biotin and washed with blocking buffer (SeaBlock (Pierce), 1% BSA, 0.05% Tween 20, 1 mM DTT) to remove unbound ligand and to reduce non-specific binding. Binding reactions were assembled by combining kinases, liganded affinity beads, and test compounds in 1× binding buffer (20% SeaBlock, 0.17×PBS, 0.05% Tween 20, 6 mM DTT). Test compounds were prepared as 111× stocks in 100% DMSO. Kds were determined using an 11-point 3-fold compound dilution series with three DMSO control points. All compounds for Kd measurements are distributed by acoustic transfer (non-contact dispensing) in 100% DMSO. The compounds were then diluted directly into the assays such that the final concentration of DMSO was 0.9%. In case of % inhibition, test compounds were prepared as 40× stocks in 100% DMSO and directly diluted into the assay. All reactions performed in polypropylene 384-well plate. Each was a final volume of 0.02 ml. The assay plates were incubated at room temperature with shaking for 1 hour and the affinity beads were washed with wash buffer (1×PBS, 0.05% Tween 20). The beads were then re-suspended in elution buffer (1×PBS, 0.05% Tween 20, 0.5 μM non-biotinylated affinity ligand) and incubated at room temperature with shaking for 30 minutes. The kinase concentration in the eluates was measured by qPCR.
The CSF1R kinase binding activity results are shown in tables 1 (Kd) and 2 (percent inhibition at a concentration of 0.1 uM of compound to be tested).
Binding constants (Kds) were calculated with a standard dose-response curve using the Hill equation: […]
The Hill Slope was set to −1.
Curves were fitted using a non-linear least square fit with the Levenberg-Marquardt algorithm.
Binding % inhibition were calculated with as below:
[formula] • negative control=DMSO (100% Ctrl) • positive control=control compound (0% Ctrl)

CSF1R (M-NFS-60 cells) = assay: Cell Titer-Glo viability assay using M-NFS-60 cells; format: cell-based; settings: Mus musculus, read-out: Cellular CSF1R activity by M-NFS-60 viability assay (IC50 activity range)
Experimental: M-NFS-60 cells were cultured in RPMI-1640 medium containing 10% FBS, 0.05 mM 2-Mercaptoethanol, penicillin (100 U/ml)/streptomycin ([…]) and supplemented with 62 ng/ml recombinant human M-CSF at 37° C./5% CO2. Aliquots of the cells were seeded into a 96-well plate (2×10^5 cells in 100 μl/well) and then incubated at 37° C./5% CO2 1 h. Dissolve compound in 100% DMSO to make 10 mM stock solutions (Aliquots stored in the Nitrogen Cabinet). Dilute 10 mM compounds solutions for 2-fold in 100% DMSO to get 5 mM solutions (10 μl+10 μl DMSO), and then make a 3-fold serial dilution (10 μl+20 μl DMSO) for 10 doses. For reference compounds: Dilute 10 mM compounds solutions for 20-fold in 100% DMSO to get 0.5 mM solutions (2 μl+38 μl DMSO), and then make a 3-fold serial dilution (10 μl+20 μl DMSO) for 8 doses. The 96-well plate was equilibrated at room temperature for 30 min. 50 μl of CellTiter-Glo® Reagent added to each well and mixed for 2 min on an orbital shaker to induce cell lysis. The 96-well plate was incubated at room temperature for 10 min to stabilize luminescent signal. Luminescent was measured […] by EnVison plate reader. Calculations and Formulas: The following calculations and formulas are used for data analysis using XL Fit software: The curve fitting was made using the Sigmoidal Dose-Response Model (Fit model, 205).

[1] = read-out: CSF1R kinase binding activity, Percent (%) inhibition
[2] = read-out: CSF1R kinase binding activity, Range

Sequence of CSF1R (P07333 20-972): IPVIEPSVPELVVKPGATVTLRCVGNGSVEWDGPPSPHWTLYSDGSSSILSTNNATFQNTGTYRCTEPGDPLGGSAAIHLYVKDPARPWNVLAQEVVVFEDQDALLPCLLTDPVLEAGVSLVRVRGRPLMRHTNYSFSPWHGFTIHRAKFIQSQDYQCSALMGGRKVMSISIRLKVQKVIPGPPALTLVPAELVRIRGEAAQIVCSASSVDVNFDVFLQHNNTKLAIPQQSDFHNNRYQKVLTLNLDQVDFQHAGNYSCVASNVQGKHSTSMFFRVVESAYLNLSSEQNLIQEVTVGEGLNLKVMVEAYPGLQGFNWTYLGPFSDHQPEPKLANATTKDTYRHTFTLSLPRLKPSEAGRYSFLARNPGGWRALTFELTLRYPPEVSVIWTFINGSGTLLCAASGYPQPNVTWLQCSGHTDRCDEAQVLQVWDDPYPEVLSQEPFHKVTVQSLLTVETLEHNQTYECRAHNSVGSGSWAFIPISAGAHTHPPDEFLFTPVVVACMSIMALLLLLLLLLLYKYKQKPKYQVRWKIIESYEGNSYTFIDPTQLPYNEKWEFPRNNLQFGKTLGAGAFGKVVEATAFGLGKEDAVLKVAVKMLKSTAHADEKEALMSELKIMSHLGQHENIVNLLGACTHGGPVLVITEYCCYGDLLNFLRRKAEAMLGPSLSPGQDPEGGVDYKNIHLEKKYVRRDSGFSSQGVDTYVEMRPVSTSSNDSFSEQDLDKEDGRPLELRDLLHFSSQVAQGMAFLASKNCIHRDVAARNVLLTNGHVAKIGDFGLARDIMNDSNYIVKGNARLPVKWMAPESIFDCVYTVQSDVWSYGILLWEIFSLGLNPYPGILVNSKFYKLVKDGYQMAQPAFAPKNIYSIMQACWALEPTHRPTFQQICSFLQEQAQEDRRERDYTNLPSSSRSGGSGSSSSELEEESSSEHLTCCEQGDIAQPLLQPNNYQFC

| Structure (SMILES) | inhibition at 0.1 µM (CSF1R; [1]) [%] | inhibition at 0.1 µM (CSF1R; [2]) [%] | pIC50 (CSF1R (M-NFS-60 cells)) | pKd (CSF1R) |
| --- | --- | --- | --- | --- |
| COc1cc2nccc(Oc3ccc(NC(=O)c4nn(C5CC5)cc4OC(C)C)nc3)c2cc1OC [Compound 108] | 96 | ≥ 80 | > 6.00 |  |
| COc1cc2nccc(Oc3ccc(NC(=O)c4nn(CC(C)C)cc4OCC(F)(F)F)cn3)c2cc1OC [Compound 103] | 29 | < 50 | 5.00 to 6.00 |  |
| COCCn1cc(OCC(F)(F)F)c(C(=O)Nc2ccc(Oc3ccnc4cc(OC)c(OC)cc34)nc2)n1 [Compound 104] | 46 | < 50 | ≤ 5.00 |  |
| COc1cc2nccc(Oc3ccc(NC(=O)c4nn(CCOC5CC5)cc4OCC(F)(F)F)cn3)c2cc1OC [Compound 130] | 41 | < 50 | 5.00 to 6.00 |  |
| COCCn1cc(OCC(F)(F)F)c(C(=O)Nc2ccc(Oc3ccnc4cc(OC)c(OC)cc34)cn2)n1 [Compound 10] | 98 | ≥ 80 | > 6.00 | > 7.00 |
| CNCCn1cc(OCC(F)(F)F)c(C(=O)Nc2ccc(Oc3ccnc4cc(OC)c(OC)cc34)cc2)n1 [Compound 119] | 9 | < 50 | 5.00 to 6.00 |  |
| CNCCn1cc(OCC(F)(F)F)c(C(=O)Nc2ccc(Oc3ccnc4cc(OC)c(OC)cc34)cn2)n1 [Compound 11] | 88 | ≥ 80 | > 6.00 | > 7.00 |
| COc1cc2nccc(Oc3ccc(NC(=O)c4nn(C5CCN(C)C5)cc4OCC(F)(F)F)nn3)c2cc1OC (stereo not drawn) [Compound 157] | 81 | ≥ 80 | 5.00 to 6.00 |  |
| CCn1cc(OCC(F)(F)F)c(C(=O)Nc2ccc(Oc3ccnc4cc(OC)c(OC)cc34)cn2)n1 [Compound 4] | 98 | ≥ 80 | > 6.00 | > 7.00 |
| COc1cc2nccc(Oc3ccc(NC(=O)c4nn(C5CC5)cc4OCC4COC4)nc3)c2cc1OC [Compound 143] | 95 | ≥ 80 | 5.00 to 6.00 |  |
| COc1cc2nccc(Oc3ccc(NC(=O)c4nn(CC5COC5)cc4OCC(F)(F)F)cc3C)c2cc1OC [Compound 99] | 94 | ≥ 80 | 5.00 to 6.00 |  |
| COc1cc2nccc(Oc3ccc(NC(=O)c4nn(C5CCOC5)cc4OCC(F)(F)F)cn3)c2cc1OC (stereo not drawn) [Compound 138] | 9 | < 50 | 5.00 to 6.00 |  |
| CCCn1cc(OCC2CNC2)c(C(=O)Nc2ccc(Oc3ccnc4cc(OC)c(OC)cc34)cn2)n1 [Compound 159] | 64 | 50 to 80 | ≤ 5.00 |  |
| COCCOc1cn(CC(C)O)nc1C(=O)Nc1ccc(Oc2ccnc3cc(OC)c(OC)cc23)cn1 (stereo not drawn) [Compound 150] | 74 | 50 to 80 | 5.00 to 6.00 |  |
| COc1cc2nccc(Oc3ccc(NC(=O)c4n[nH]cc4OCC(F)(F)F)nc3)c2cc1OC [Compound 16] | 99 | ≥ 80 | > 6.00 |  |
| COc1cc2nccc(Oc3ccc(NC(=O)c4nn(CC5COC5)cc4OCC(F)(F)F)cn3)c2cc1OC [Compound 134] | 18 | < 50 | ≤ 5.00 |  |
| COc1cc2nccc(Oc3ccc(NC(=O)c4nn(CCO)cc4OCC(F)(F)F)cn3)c2cc1OC [Compound 129] | 24 | < 50 | ≤ 5.00 |  |
| COc1cc2nccc(Oc3ccc(NC(=O)c4nn(CC5COC5)cc4OCC(F)(F)F)cc3)c2cc1OC [Compound 101] | 45 | < 50 | 5.00 to 6.00 |  |

| Structure (SMILES) | inhibition at 0.1 µM (CSF1R; [1]) [%] | inhibition at 0.1 µM (CSF1R; [2]) [%] | pIC50 (CSF1R (M-NFS-60 cells)) | pKd (CSF1R) |
| --- | --- | --- | --- | --- |
| COc1cc2nccc(Oc3ccc(NC(=O)c4nn(C5CC5)cc4OCCF)nc3)c2cc1OC [Compound 110] | 98 | ≥ 80 | > 6.00 |  |
| COc1cc2nccc(Oc3ccc(NC(=O)c4nn(C5CC5)cc4OCC(F)F)nc3)c2cc1OC [Compound 109] | 98 | ≥ 80 | > 6.00 |  |
| COc1cc2nccc(Oc3ccc(NC(=O)c4nn(CCOC5CC5)cc4OCC(F)(F)F)c(F)c3)c2cc1OC [Compound 115] | 94 | ≥ 80 | 5.00 to 6.00 |  |
| CCCn1cc(OCC(F)(F)F)c(C(=O)Nc2ccc(Oc3ccnc4cc(OC)c(OC)cc34)c(C(F)(F)F)c2)n1 [Compound 114] | 27 | < 50 | 5.00 to 6.00 |  |
| CCCn1cc(OCCNC)c(C(=O)Nc2ccc(Oc3ccnc4cc(OC)c(OC)cc34)cn2)n1 [Compound 140] | 38 | < 50 | 5.00 to 6.00 |  |
| COc1cc2nccc(Oc3ccc(NC(=O)c4nn(CC5COC5)cc4OCC(F)(F)F)cc3F)c2cc1OC [Compound 97] | 56 | 50 to 80 | 5.00 to 6.00 |  |
| COc1cc2nccc(Oc3ccc(NC(=O)c4nn(C5CC5)cc4NCC(F)(F)F)nn3)c2cc1OC [Compound 148] | 60 | 50 to 80 | 5.00 to 6.00 |  |
| COc1cc2nccc(Oc3ccc(NC(=O)c4nn(CC(C)O)cc4OCCF)nc3)c2cc1OC (stereo not drawn) [Compound 152] | 96 | ≥ 80 | > 6.00 |  |
| CCCn1cc(NCCC(F)(F)F)c(C(=O)Nc2ccc(Oc3ccnc4cc(OC)c(OC)cc34)cn2)n1 [Compound 158] | 91 | ≥ 80 | 5.00 to 6.00 |  |
| COc1cc2nccc(Oc3ccc(NC(=O)c4nn(C5CC5)cc4NCCC(F)(F)F)nc3)c2cc1OC [Compound 142] | 92 | ≥ 80 | 5.00 to 6.00 |  |
| COc1cc2nccc(Oc3ccc(NC(=O)c4nn(CC(C)O)cc4OCC4CCC4)nc3)c2cc1OC (stereo not drawn) [Compound 163] | 93 | ≥ 80 | 5.00 to 6.00 |  |
| CCCn1cc(OCC(F)(F)F)c(C(=O)Nc2ccc(Oc3ccnc4cc(OC)c(OC)cc34)nc2)n1 [Compound 139] | 37 | < 50 | 5.00 to 6.00 |  |
| COCCn1cc(OCC(F)(F)F)c(C(=O)Nc2ccc(Oc3ccnc4cc(OC)c(OC)cc34)nn2)n1 [Compound 126] | 78 | 50 to 80 | 5.00 to 6.00 |  |
| CNCCOc1cn(C2CC2)nc1C(=O)Nc1ccc(Oc2ccnc3cc(OC)c(OC)cc23)cn1 [Compound 141] | 23 | < 50 | ≤ 5.00 |  |
| COc1cc2nccc(Oc3ccc(NC(=O)c4nn(C5CC5)cc4OCC4COC4)nn3)c2cc1OC [Compound 161] | 14 | < 50 | 5.00 to 6.00 |  |
| COc1cc2nccc(Oc3ccc(NC(=O)c4nn(C5CCN(C)C5)cc4OCC(F)(F)F)cc3C)c2cc1OC (stereo not drawn) [Compound 98] | 60 | 50 to 80 | 5.00 to 6.00 |  |
| COc1cc2nccc(Oc3ccc(NC(=O)c4nn(CCN)cc4OCC(F)(F)F)nn3)c2cc1OC [Compound 125] | 38 | < 50 | ≤ 5.00 |  |
